The record followed here is ChEMBL document CHEMBL4673297, “Glutathione peroxidase-like functions of 1,2-diselenane-4,5-diol and its amphiphilic derivatives: Switchable catalytic cycles depending on peroxide substrates” (Bioorg Med Chem, 2021).

The nature of data set [1]: Glutathione peroxidase-like catalytic anti-lipid peroxidation activity assessed as inhibition of AAPH-induced lipid peroxidation incubated for 3 hrs using soybean lecithin/cholesterol-liposomes by TBARS assay. Type of data set: physicochemical.
Data set [2] in a line: Glutathione peroxidase-like catalytic antioxidant activity in pH 7 phosphate buffer assessed as catalytic reduction of H2O2 by measuring initial velocity at 100 uM and 25 degreeC using GSH as mono-thiol co-substrate in presence of NADPH by UV absorbance analysis (reference value: 11 +/- 0.4 microM/min). Type of data set: functional.
Data set [3] can be described thus: Glutathione peroxidase-like catalytic antioxidant activity in pH 7 phosphate buffer assessed as catalytic reduction of H2O2 by measuring initial velocity at 0.2 mM and 25 degreeC using reduced DTT as di-thiol co-substrate in presence of NADPH by UV absorbance analysis (reference value: 72+/- 3 microM/min). Type of data set: functional.
Data set [4] in a line: Glutathione peroxidase-like catalytic activity assessed as drug oxidation by measuring (S)-[1,2,7]Oxadiselenepan-4-yl-ammonium formation incubated with 8.6 mM H2O2 in water at 3.8 mM incubated for 3 hrs by ESI(+)-MS spectral analysis. It is filed as functional.
Data set [5] can be described thus: Glutathione peroxidase-like catalytic activity assessed as drug oxidation by measuring (S)-2-Oxo-2lambda(4)-[1,2]diselenan-4-yl-ammonium formation incubated with 8.6 mM H2O2 in water at 3.8 mM incubated for 3 hrs by ESI(+)-MS spectral analysis. Type of data set: functional.
Data set [6] can be described thus: Glutathione peroxidase-like catalytic activity assessed as drug oxidation by measuring (S)-2-Oxo-2lambda(4)-[1,2,7]oxadiselenepan-4-yl-ammonium formation incubated with 8.6 mM H2O2 in water at 3.8 mM incubated for 3 hrs by ESI(+)-MS spectral analysis. Type of data set: functional.
A short description of data set [7]: Glutathione peroxidase-like catalytic activity assessed as drug oxidation by measuring (S)-2,7-Dioxo-2lambda(4),7lambda(4)-[1,2,7]oxadiselenepan-4-yl-ammonium formation incubated with 8.6 mM H2O2 in water at 3.8 mM incubated for 3 hrs by ESI(+)-MS spectral analysis. Type of data set: functional.
Data set [8] can be described thus: Glutathione peroxidase-like catalytic activity assessed as drug oxidation by measuring (2S)-1,4-diseleninobutan-2-aminium formation incubated with 8.6 mM H2O2 in water at 3.8 mM incubated for 3 hrs by ESI(+)-MS spectral analysis. Type of data set: functional.
The nature of data set [9]: Glutathione peroxidase-like catalytic activity assessed as drug oxidation by measuring (S)-2-Oxo-2lambda(4)-[1,2]diselenan-4-yl-ammonium formation incubated with 3.8 mM H2O2 in water at 3.8 mM incubated for 30 mins by ESI(+)-MS spectral analysis. Type of data set: functional.
The nature of data set [10]: Glutathione peroxidase-like catalytic activity assessed as drug oxidation by measuring (S)-[1,2,7]Oxadiselenepan-4-yl-ammonium formation incubated with 3.8 mM H2O2 in water at 3.8 mM incubated for 30 mins by ESI(+)-MS spectral analysis. Type of data set: functional.
Data set [11] is described as follows: Glutathione peroxidase-like catalytic activity assessed as drug oxidation by measuring (S)-2-Oxo-2lambda(4)-[1,2,7]oxadiselenepan-4-yl-ammonium formation incubated with 3.8 mM H2O2 in water at 3.8 mM incubated for 30 mins by ESI(+)-MS spectral analysis. It is filed as functional.
A short description of data set [12]: Glutathione peroxidase-like catalytic activity assessed as drug oxidation by measuring (S)-2,7-Dioxo-2lambda(4),7lambda(4)-[1,2,7]oxadiselenepan-4-yl-ammonium formation incubated with 3.8 mM H2O2 in water at 3.8 mM incubated for 30 mins by ESI(+)-MS spectral analysis. Type of data set: functional.
A short description of data set [13]: Glutathione peroxidase-like catalytic activity assessed as drug oxidation by measuring (S)-2-Oxo-2lambda(4)-[1,2]diselenan-4-yl-ammonium formation incubated with 8.6 mM H2O2 and 8.6 mM reduced DTT in water at 3.8 mM incubated for 2 mins by ESI(+)-MS spectral analysis. It is filed as functional.
The nature of data set [14]: Glutathione peroxidase-like catalytic activity assessed as drug oxidation by measuring (S)-[1,2,7]Oxadiselenepan-4-yl-ammonium formation incubated with 8.6 mM H2O2 and 8.6 mM reduced DTT in water at 3.8 mM incubated for 2 mins by ESI(+)-MS spectral analysis. It is filed as functional.
Data set [15] in a line: Glutathione peroxidase-like catalytic activity assessed as drug oxidation by measuring (S)-2-Oxo-2lambda(4)-[1,2,7]oxadiselenepan-4-yl-ammonium formation incubated with 8.6 mM H2O2 and 8.6 mM reduced DTT in water at 3.8 mM incubated for 2 mins by ESI(+)-MS spectral analysis. It is filed as functional.
Data set [16] in a line: Glutathione peroxidase-like catalytic activity assessed as drug oxidation by measuring (S)-2,7-Dioxo-2lambda(4),7lambda(4)-[1,2,7]oxadiselenepan-4-yl-ammonium formation incubated with 8.6 mM H2O2 and 8.6 mM reduced DTT in water at 3.8 mM incubated for 2 mins by ESI(+)-MS spectral analysis. Type of data set: functional.
The nature of data set [17]: Glutathione peroxidase-like catalytic activity assessed as drug oxidation by measuring (2S)-1,4-diseleninobutan-2-aminium formation incubated with 8.6 mM H2O2 and 8.6 mM reduced DTT in water at 3.8 mM incubated for 2 mins by ESI(+)-MS spectral analysis. It is filed as functional.
Data set [18] relates to HeLa. Nature of the data set: Cytotoxicity against human HeLa cells assessed as reduction in cell viability at 100 uM measured after 15 hrs hrs by MTT assay. Type of data set: cell-based. In general terms: Formazan colour is commonly taken as a measure of viable cells.
The test system of data set [19] is HeLa. Briefly: (§1) Cytotoxicity against human HeLa cells assessed as cell viability at 20 uM measured after 15 hrs by MTT assay relative to control. Conditions: hela, 15 h, 20 µM. It is filed as cell-based.
The subject of data set [20] is HeLa. Nature of the data set: Protection against H2O2-induced oxidative stress in human HeLa cells assessed as cell viability at 20 uM preincubated with compound for 15 hrs followed by drug wash-out and later incubated with H2O2 for 4 hrs by MTT assay. It is filed as functional, cell-based.
Data set [21] deals with HeLa. Briefly: Protection against AAPH-induced oxidative stress in human HeLa cells assessed as increase in cell viability at 5 to 20 uM preincubated for 15 hrs followed by incubation with AAPH for 3 hrs by MTT assay relative to control. It is filed as functional. The settings on record: dose 5-20 µM; time 18 hrs.
Data set [22] can be described thus: Solubility of the compound in phosphate buffer solution at pH 7.5 in presence of reduced DTT. Type of data set: physicochemical.
The nature of data set [23]: Glutathione peroxidase-like catalytic antioxidant activity in pH 7 phosphate buffer assessed as catalytic reduction of H2O2 by measuring lipoic acid formation using DHLA as co-substrate at 0.2 mM in presence of NADPH by UV absorbance analysis. It is filed as functional.
Data set [24] is described as follows: Antioxidant activity assessed as radical scavenging activity by measuring DPBQ generation using DPPD and AMVN as radical initiator at 0.5 mM preincubated for 5 mins with DPPD followed by AMVN addition and measured for 30 mins by UV/Vis-spectrophotometry analysis. The settings on record: time 35.0 min. Type of data set: functional.
A short description of data set [25]: Glutathione peroxidase-like catalytic antioxidant activity assessed as CST-HCl thiol co-substrate oxidation by measuring disulfide formation at 11.5 umol in presence of CHP lipophilic peroxide in 10 mM aqueous HCl/CH2Cl2 solution incubated for 24 hrs by 1H-NMR spectroscopy. It is filed as functional. The settings on record: dose 11.5 µmol.
The nature of data set [26]: Glutathione peroxidase-like catalytic antioxidant activity assessed as CST-HCl thiol co-substrate oxidation by measuring disulfide formation at 11.5 umol in presence of CHP lipophilic peroxide in water/CH2Cl2 solution incubated for 24 hrs by 1H-NMR spectroscopy. Conditions: dose 11.5 µmol. It is filed as functional.
A short description of data set [27]: as §1. It is filed as cell-based. Conditions: HeLa cells, read-out: Activity.
Data set [28] is described as follows: Glutathione peroxidase-like catalytic anti-lipid peroxidation activity assessed as inhibition of AAPH-induced lipid peroxidation incubated for 3 hrs in presence of (+/-)-trans-5-Hydroxy-1,2-diselenan-4-yl dodecanoate using soybean lecithin/cholesterol-liposomes by TBARS assay. Type of data set: physicochemical.

One may read the pIC50 as −log10 of the IC50, conventionally taken in molar units.

Molecules are shown by their SMILES. pIC50: −log10 of the molar value. Activity calls are given as the source filed them. No cut-off for these calls is given here.

For `c1ccc([Se][Se]c2ccccc2)cc1`, the pIC50 in [1] was 4.15.
As for `O[C@@H]1C[Se]C[C@H]1O`, the IC50 entry in [2] and in data set [3] was “Not Active” throughout.
With `N[C@H]1CC[Se][Se]C1`, the Drug metabolism entry in data set [4], in data set [5], in data set [6], in data set [7], in data set [8] and in data set [9] was “Metabolite detected” throughout. Further, the Drug metabolism entry in data set [10] is given as “Metabolite detected”; in [11], “Metabolite detected”; in [12], “Metabolite detected”; in data set [13], “Metabolite detected”; in data set [14], “Metabolite detected”; in [15], “Metabolite not detected”. For the same compound, the Drug metabolism entry in data set [16] and in [17] was “Metabolite not detected” each time.
As for `O=C(O[C@@H]1C[Se][Se]C[C@H]1O)c1ccc2ccccc2c1` (racemic), the V0 in data set [2] worked out at 11.3 µM/min. The pIC50 in [1] was 4.81. In addition, the Activity entry with HeLa [18] is given as “Toxic”; in the data set with HeLa [19], “Non-Toxic”. Moreover, the result in the data set on HeLa [20] was inactive. Also, in the data set on HeLa [21], the “fold change (FC)” value is 1.5. Moreover, in [22], the solubility entry is on record as “Insoluble”.
For `O=C(O[C@@H]1C[Se][Se]C[C@H]1O)c1ccccc1` (racemic), the V0 was 12.7 µM/min in [2] and 116 µM/min in [3]. Also, in [1], the negative-log IC50 (pIC50) was 4.56. The Activity entry in the data set with HeLa [18] and with HeLa [19] was “Toxic” in each case. In addition, in the data set with HeLa [20], the result was inactive. In addition, the solubility result in data set [22] is recorded as “Soluble”.
Turning to `CCC(=O)O[C@@H]1C[Se][Se]C[C@H]1O` (racemic), the V0 in [2] came to 23 µM/min; in [3], 330 µM/min. In addition, the pIC50 in [1] is 3.92. Also, the Activity entry in the data set with HeLa [18] and with HeLa [19] was “Toxic” in each case. Besides, the result in the data set on HeLa [20] was inactive. The result in data set [23] was Active. In addition, the solubility entry in [22] is “Soluble”.
As for `CCCCCCCC(=O)O[C@@H]1C[Se][Se]C[C@H]1O` (racemic), the V0 amounted to 11.9 µM/min in [2] and 109 µM/min in data set [3]. Also, the pIC50 in data set [1] was 4.52. Moreover, the Activity result with HeLa [18] and with HeLa [19] was “Non-Toxic” throughout. The outcome with HeLa [20] was inactive. For the same compound, the “fold change (FC)” value in the data set with HeLa [21] is 1.5. Also, the solubility entry in data set [22] is given as “Soluble”.
Take `CCCCCCCCCCCC(=O)O[C@@H]1C[Se][Se]C[C@H]1O` (racemic): the values for the V0 in [2] and in data set [3] were 9.3 µM/min and 122 µM/min, respectively. Further, the negative-log IC50 (pIC50) in data set [1] is 4.97. The Activity result in the data set on HeLa [18] and in the data set with HeLa [19] was “Non-Toxic” in each case. In addition, in the data set on HeLa [20], the result was inactive. In addition, the “fold change (FC)” value with HeLa [21] came out at 1.5. The solubility result in data set [22] is recorded as “Soluble”.
Consider `CCCCCC(=O)O[C@@H]1C[Se][Se]C[C@H]1O` (racemic), for which the V0 in data set [2] amounted to 14.9 µM/min; in data set [3] it was 149 µM/min. Moreover, the pIC50 in [1] was 4.37. Further, the Activity entry in the data set with HeLa [18] and in the data set on HeLa [19] was “Toxic” throughout. The outcome in the data set on HeLa [20] was inactive. For the same compound, the result in data set [23] was Active. Moreover, the solubility entry in data set [22] is “Soluble”.
On to `CCCCCCCCCC(=O)O[C@@H]1C[Se][Se]C[C@H]1O` (racemic), for which the V0 is 10.9 µM/min in data set [2] and 172 µM/min in data set [3]. Besides, the pIC50 in data set [1] is 4.88. Further, the Activity entry in the data set on HeLa [18] and in the data set with HeLa [19] was “Non-Toxic” in each case. Besides, the result in the data set on HeLa [20] was inactive. The “fold change (FC)” value in the data set on HeLa [21] is recorded as 1.5. In data set [22], the solubility result is on record as “Soluble”.
In the case of `CCCCCCCCCCCCCC(=O)O[C@@H]1C[Se][Se]C[C@H]1O` (racemic), the values for the V0 in [2] and in data set [3] were 9.1 µM/min and 63 µM/min, respectively. In addition, in data set [1], the pIC50 is 4.78. Further, the result (in data set [24]; in the data set on HeLa [20]) was inactive. For the same compound, the Activity entry with HeLa [18] and with HeLa [19] was “Non-Toxic” in each case. Besides, the “fold change (FC)” value in the data set on HeLa [21] was determined as 1.5. Also, the outcome in [25] and in [26] was Active. Further, in data set [22], the solubility result is “Soluble”.
Consider `O=c1c2ccccc2[se]n1-c1ccccc1` [EBSELEN], for which the figures for the V0 in data set [2] and in [3] were 32.6 µM/min and 202 µM/min, respectively. Further, the negative logarithm of the IC50 (pIC50) in data set [1] is 4.09. The viability at 15 h, 20 µM in data set [27] came to 80%.
In the case of `CC1=NN(c2ccccc2)C(=O)C1` [EDARAVONE], the pIC50 in [1] is 4.53; in data set [28], 4.73.
